According to PMC9620421, “The antimicrobial peptide Magainin-2 interacts with BamA impairing folding of E. coli membrane proteins” (Frontiers in Chemistry, 2022):
Where two headings read alike, the source gives them in different places.

Assays:
[1] = system: BamA; conditions: BamA identified as target; Gram-negative bacteria; ref Hart et al., 2019; Li et al., 2020; cited from earlier work
Source text: Among the putative Mag-2 interactors, we focused our attention on the Bam complex as the proteomic experiment led to the identification of all the protein components of this complex essential for bacterial surviving. In particular, BamA is the central component of the Bam complex while BamB, -C, -D and -E are four lipoproteins with a secondary role.

[2] = cited from earlier work
Source text: Biophysical studies led to hypothesize three models that can explain the membrane disruption by AMPs: barrel-stave, toroidal pore and carpet mechanisms ([Di Somma et al., 2020]). According to these mechanisms, antimicrobial peptides interact with bacterial outer membranes, perturbing their integrity and causing their disaggregation ([Huang, 2006]). Most of AMPs show pore formation after binding to the membrane surface. X-ray crystallization studies and spectroscopic analyses reported that Alamethicin, a channel-forming peptide, insert into the lipid bilayer to form a barrel-stave pore structur ...

[3] = biological target: T1, BamAp5 (Escherichia coli, UniProt P0A940); test: Intrinsic fluorescence binding titration; design: species or system E. coli
T1 construct: 6xHis; made in house; host or cells: E. coli BL21
Procedure: Fluorescence experiments were performed on a Fluoromax-4 spectrofluorometer from Horiba Scientific, using 1 cm optical path-length quartz cell under controlled temperature conditions (Peltier control system at 20°C). Titrations were carried out in 20 mM Tris-HCl pH 8.4, 0.2% triton. The intrinsic fluorescence intensity of BamAP5 at a concentration of 3.7 × 10^−6 M was monitored at 280 nm (slit 4 nm) and the emission was monitored at 308 nm (slit 4 nm) without and in the presence of increasing concentrations of Mag-2 peptide (from 2 to 18.64 µM). All experiments were performed in duplicate. The change in the fluorescence intensity of the reaction set was fit into “one site-specific binding” equation of GraphPad Prism 5 (GraphPad Software).

[4] = system: OmpA; test: Western blot densitometry of OmpA in E. coli after Mag-2 incubation; assay type: cell-based; conditions: 75 µM Mag-2, 1 h
Procedure: The E. coli cells were grown in the presence and in the absence of 50 µM Mag-2 for 1h, 2h and 3 h. The level of the OmpA protein was identified by Western Blot using a specific antiOmpA antibody. The amount of OmpA was then evaluated by densitometric analysis of the corresponding western blotted band. […] The same experiment was also carried out using a higher concentration of Mag-2 (75 µM) for as fixed time (1 h).

[5] = system: OmpA; test: LC-MRM/MS quantification of OmpA in E. coli after Mag-2 incubation; assay type: cell-based
Source text: Cone voltage was set to 35V.

[6] = system: E. coli membrane proteins; test: Pull-down proteomics, number of putative interactors; assay type: binding; conditions: biotinylated Mag-2 on avidin-agarose, biotin elution, LC-MS/MS; absent in control
[7] = system: BamA
[8] = system: OmpF; conditions: 50 µM Mag-2 for 1h, 2 h and 3h; triplicate LC-MS/MS; t-test p < 0.05; with increasing time of incubation
[9] = system: bacterial membrane; conditions: ref Billah et al., 2022; cited from earlier work
Source text: Peptide binding is favoured by both hydrophobic interactions between non-polar amino acids and the hydrophobic nucleus of the membrane and electrostatic interactions between the positive charges of the peptides and the negative charges of lipids ([Bahar and Ren, 2013]). Although the mechanism of action is not yet fully understood at molecular level, it is known that Magain ...

[10] = biological target: T2, 6XHis-tagged E. coli BamAp5 (β-barrel domain and fifth POTRA domain, residues 344-810) (E. coli, UniProt P0A940 344-810); test: other fluorescence titration; intrinsic fluorescence of 3.7 x 10^-6 M BamAp5 (excitation 280 nm, emission 308 nm) with Mag-2 from 2 to 18.64 µM; 20 mM Tris-HCl pH 8.4, 0.2% triton, 20°C; one site-specific binding fit; duplicate; conditions: both partners purified
T2 construct: Monomer by DLS; also called recombinant form of BamA

COC(=O)c1c(NC(=O)c2ccc([N+](=O)[O-])o2)sc2c1CCN(C(C)C)C2 [IMB-H4]
inhibition of the assembly of OMPs [1]: inhibits the assembly of OMPs in Gram-negative bacteria

NC(N)=NC(=O)CC(Nc1nc(N=C(N)N)nc(NC2CCC(NC(=O)Cn3nnc(-c4ccc(F)cc4)n3)CC2)n1)C1CC1 (stereo not drawn) [MRL-494]
inhibition of the assembly of OMPs [1]: inhibits the assembly of OMPs in Gram-negative bacteria

Alamethicin
membrane pore formation ([2]; X-ray crystallization and spectroscopic analyses, ref Qian et al., 2008): insert into the lipid bilayer to form a barrel-stave pore structure consisting of eight alamethicin helices

Magainin-2 (GIGKFLHSAKKFGKAFVGEIMNS) [Mag-2, well-known antimicrobial peptide isolated from the African clawed frog Xenopus laevis]
Kd ([3]; intrinsic fluorescence quenching, ex 280 nm, em 308 nm, BamAP5 3.7 × 10^−6 M, Mag-2 2 to 18.64 µM, 20 mM Tris-HCl pH 8.4, 0.2% triton, 20°C, duplicate, one site-specific binding fit, read-out: dissociation constant of the complex, Kd): 3.5 ± 0.1 µM
change of BamAP5 intrinsic fluorescence ([3]; λexc 280 nm, BamAp5 3.7 × 10^−6 M, increasing Mag-2, 20°C): fluorescence decreased at increasing concentrations of the peptide
change of OmpA level [4]: rapid and drastic reduction of the OmpA level
amount of OmpA peptide 252-263 (DGSVVVLGYTDR) by MRM peak area ([5]; 50 µM Mag-2, 1 h, vs control): decrease of the OmpA peptide
amount of OmpA by MRM ([5]; 50 µM Mag-2 for 1h, 2 h and 3h, triplicate LC-MS/MS, t-test p < 0.05, with increasing time of incubation): clear decrease
number of putative protein interactors [6]: 35
hydrodynamic radius of the protein in presence of peptide ([7]; DLS, 532.5 nm, peptide concentration ten times that of the protein, protein without peptide 4.7 ± 0.1 nm, at least 10 independent measurements): 4.3 ± 0.1 nm
aggregation state by DLS ([7]; samples without and with peptide (ten times higher concentration than protein)): only the protein monomer is present in both samples
amount of OmpF by MRM [8]: clear decrease
mechanism of antimicrobial activity [9]: toroidal mechanism

Melittin
membrane pore formation ([2]; fluorescence studies with phospholipid vesicles, ref Lohner and Blondelle, 2005): formation of pore coupled with the translocation of peptide across the lipid bilayer

B1: Magainin-2 (peptide, UniProt P11006 83-105, looked up)
peptide: GIGKFLHSAKKFGKAFVGEIMNS
notes: Magainin-2 (Mag-2), antimicrobial peptide of the African clawed frog Xenopus laevis; cut product of the magainins precursor; the docking text numbers it to Ser23; also called Mag-2; Maganin-2
Kd [10]: 3.5 ± 0.1 nM
